Measured values published in PMC7728545 (Cell, 2020).
Like-named read-outs stand apart in the source and are kept apart here.

How the values were obtained:
[1] = target: EcCdnD (Enterobacter hormaechei, UniProt P0DSP4); type: biochemical; conditions: 10 mM MgCl2, 50 mM CAPSO pH 9.4, 37 °C
[2] = target: T1, AbCdnD (Acinetobacter sp. ATCC 27244, UniProt C0VHD2); assay: cyclic oligonucleotide synthesis; type: biochemical; conditions: K+, Mg2+, Mn2+, pH 9.0-9.4, 37 °C
T1 sequence (C0VHD2 1-343): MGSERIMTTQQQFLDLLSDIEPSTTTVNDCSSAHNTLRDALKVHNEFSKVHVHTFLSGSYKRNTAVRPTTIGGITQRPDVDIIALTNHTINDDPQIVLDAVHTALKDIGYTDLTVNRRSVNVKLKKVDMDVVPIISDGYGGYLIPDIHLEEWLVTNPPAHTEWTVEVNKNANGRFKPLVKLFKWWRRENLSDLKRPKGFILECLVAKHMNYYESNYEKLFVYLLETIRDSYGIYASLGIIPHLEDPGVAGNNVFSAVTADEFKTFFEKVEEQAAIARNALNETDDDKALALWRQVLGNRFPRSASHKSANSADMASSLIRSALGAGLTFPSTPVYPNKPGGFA

[3] = target: T2, EcCap4 K74A (Enterobacter cloacae, UniProt P0DUD5 1-499, K74A); assay: EMSA
T2 sequence: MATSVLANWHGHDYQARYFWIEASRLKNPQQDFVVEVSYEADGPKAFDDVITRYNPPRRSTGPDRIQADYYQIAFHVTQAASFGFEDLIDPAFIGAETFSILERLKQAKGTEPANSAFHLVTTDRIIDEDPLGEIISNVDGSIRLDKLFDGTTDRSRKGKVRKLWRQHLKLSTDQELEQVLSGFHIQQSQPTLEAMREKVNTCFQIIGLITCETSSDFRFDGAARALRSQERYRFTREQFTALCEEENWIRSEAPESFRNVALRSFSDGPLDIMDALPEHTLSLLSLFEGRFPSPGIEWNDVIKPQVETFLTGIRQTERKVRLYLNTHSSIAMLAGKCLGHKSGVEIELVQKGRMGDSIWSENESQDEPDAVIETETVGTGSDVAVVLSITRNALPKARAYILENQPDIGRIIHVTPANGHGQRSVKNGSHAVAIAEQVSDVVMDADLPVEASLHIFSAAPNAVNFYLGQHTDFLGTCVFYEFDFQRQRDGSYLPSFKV

[4] = target: AbCap4 K69A (Acinetobacter baumannii, UniProt C0VHC9 1-462, K69A); assay: EMSA

Molecule: Nc1nc2c(ncn2[C@@H]2O[C@H](COP(=O)(O)OP(=O)(O)OP(=O)(O)O)[C@@H](O)[C@H]2O)c(=O)[nH]1 [GTP]
- TLC with 32P-label ([1]; co-substrate ATP): EcCdnD: ATP, GTP

Molecule: Nc1ncnc2c1ncn2[C@@H]1O[C@H](COP(=O)(O)OP(=O)(O)OP(=O)(O)O)[C@@H](O)[C@H]1O [ATP]
- cyclic oligonucleotide synthesis; AbCap4 activation, TLC, HPLC [2]: ATP is necessary and sufficient to allow AbCdnD to synthesize the activating nucleotide second messenger
- TLC with 32P-label ([1]; co-substrate GTP, labelled compound): EcCdnD: ATP, GTP

B1: DNA45 (45 bp DNA) (dsDNA)
DNA 1: TACAGATCTACTAGTGATCTATGACTGATCTGTACATGATCTACA
DNA 2: TGTAGATCATGTACAGATCAGTCATAGATCACTAGTAGATCTGTA
- binding result [3]: binds
- binding result [4]: binds
